{"source": "patent US8802895B2", "about": "“Amide derivatives of benzene-sulfonanilide, pharmaceutical composition thereof and method for cancer treatment using the same” (Cleveland State University, priority 2010, dated 2014)", "type_in_all_cases": "cell-based", "key": {"[1]": {"system": "HL-60(TB)", "test": "NCIDTP 60 cancer cell lines screening, Leukemia panel"}, "[2]": {"system": "A549/ATCC", "test": "NCIDTP 60 cancer cell lines screening, Non-Small Cell Lung Cancer panel"}, "[3]": {"system": "NCI-H460", "test": "NCIDTP 60 cancer cell lines screening, Non-Small Cell Lung Cancer panel"}, "[4]": {"system": "SW-620", "test": "NCIDTP 60 cancer cell lines screening, Colon Cancer panel"}, "[5]": {"system": "SF-539", "test": "NCIDTP 60 cancer cell lines screening, CNS Cancer panel"}, "[6]": {"system": "M14", "test": "NCIDTP 60 cancer cell lines screening, Melanoma panel"}, "[7]": {"system": "SK-MEL-5", "test": "NCIDTP 60 cancer cell lines screening, Melanoma panel"}, "[8]": {"system": "UACC-257", "test": "NCIDTP 60 cancer cell lines screening, Melanoma panel"}}, "data": [{"smiles": "Cc1ccc(C)c(COc2cc(NC(=O)c3ccc4c(c3)OCO4)ccc2N(C)S(C)(=O)=O)c1", "note": "[Compound #10, Benzo[1,3]dioxole-5-carboxylic acid [3-(2,5-dimethyl-benzyloxy)-4-(methanesulfonyl-methyl-amino)-phenyl]-amide]", "values": [{"measurement": "TGI", "setting": "[1]; HL-60(TB)", "value": "9.67E−8", "unit": "Molar"}, {"measurement": "Percent Growth", "setting": "[1]; HL-60(TB), Log10 Concentration −4.0 Molar", "value": "−20", "unit": "%"}, {"measurement": "Percent Growth", "setting": "[1]; HL-60(TB), Log10 Concentration −5.0 Molar", "value": "−20", "unit": "%"}, {"measurement": "Percent Growth", "setting": "[1]; HL-60(TB), Log10 Concentration −6.0 Molar", "value": "−12", "unit": "%"}, {"measurement": "Percent Growth", "setting": "[1]; HL-60(TB), Log10 Concentration −7.0 Molar", "value": "−1", "unit": "%"}, {"measurement": "Percent Growth", "setting": "[1]; HL-60(TB), Log10 Concentration −8.0 Molar", "value": 89, "unit": "%"}, {"measurement": "CC50", "setting": "[1]; Homo sapiens, HL-60, read-out: LC50", "value": "> 100000", "unit": "nM"}, {"measurement": "GI50", "setting": "[1]; Homo sapiens, HL-60(TB)", "value": 26.9, "unit": "nM"}, {"measurement": "TGI", "setting": "[2]; A549/ATCC", "value": "1.36E−5", "unit": "Molar"}, {"measurement": "Percent Growth", "setting": "[2]; A549/ATCC, Log10 Concentration −4.0 Molar", "value": "−29", "unit": "%"}, {"measurement": "Percent Growth", "setting": "[2]; A549/ATCC, Log10 Concentration −5.0 Molar", "value": 5, "unit": "%"}, {"measurement": "Percent Growth", "setting": "[2]; A549/ATCC, Log10 Concentration −6.0 Molar", "value": 12, "unit": "%"}, {"measurement": "Percent Growth", "setting": "[2]; A549/ATCC, Log10 Concentration −7.0 Molar", "value": 80, "unit": "%"}, {"measurement": "Percent Growth", "setting": "[2]; A549/ATCC, Log10 Concentration −8.0 Molar", "value": 97, "unit": "%"}, {"measurement": "CC50", "setting": "[2]; Homo sapiens, A549, read-out: LC50", "value": "> 100000", "unit": "nM"}, {"measurement": "GI50", "setting": "[2]; Homo sapiens, A549/ATCC", "value": 278, "unit": "nM"}, {"measurement": "GI50", "setting": "[3]; Homo sapiens, NCI-H460", "value": 184, "unit": "nM"}, {"measurement": "CC50", "setting": "[3]; Homo sapiens, NCI-H460, read-out: LC50", "value": "> 100000", "unit": "nM"}, {"measurement": "TGI", "setting": "[3]; NCI-H460", "value": "7.44E−7", "unit": "Molar"}, {"measurement": "Percent Growth", "setting": "[3]; NCI-H460, Log10 Concentration −4.0 Molar", "value": "−24", "unit": "%"}, {"measurement": "Percent Growth", "setting": "[3]; NCI-H460, Log10 Concentration −5.0 Molar", "value": "−10", "unit": "%"}, {"measurement": "Percent Growth", "setting": "[3]; NCI-H460, Log10 Concentration −6.0 Molar", "value": "−11", "unit": "%"}, {"measurement": "Percent Growth", "setting": "[3]; NCI-H460, Log10 Concentration −7.0 Molar", "value": 72, "unit": "%"}, {"measurement": "Percent Growth", "setting": "[3]; NCI-H460, Log10 Concentration −8.0 Molar", "value": 95, "unit": "%"}, {"measurement": "GI50", "setting": "[4]; Homo sapiens, SW-620", "value": 112, "unit": "nM"}, {"measurement": "CC50", "setting": "[4]; Homo sapiens, SW-620, read-out: LC50", "value": "> 100000", "unit": "nM"}, {"measurement": "TGI", "setting": "[4]; SW-620", "value": ">1.00E−4", "unit": "Molar"}, {"measurement": "Percent Growth", "setting": "[4]; SW-620, Log10 Concentration −4.0 Molar", "value": 16, "unit": "%"}, {"measurement": "Percent Growth", "setting": "[4]; SW-620, Log10 Concentration −5.0 Molar", "value": 21, "unit": "%"}, {"measurement": "Percent Growth", "setting": "[4]; SW-620, Log10 Concentration −6.0 Molar", "value": 19, "unit": "%"}, {"measurement": "Percent Growth", "setting": "[4]; SW-620, Log10 Concentration −7.0 Molar", "value": 52, "unit": "%"}, {"measurement": "Percent Growth", "setting": "[4]; SW-620, Log10 Concentration −8.0 Molar", "value": 92, "unit": "%"}, {"measurement": "GI50", "setting": "[5]; Homo sapiens, SF-539", "value": 125, "unit": "nM"}, {"measurement": "CC50", "setting": "[5]; Homo sapiens, SF-539, read-out: LC50", "value": "> 100000", "unit": "nM"}, {"measurement": "Percent Growth", "setting": "[5]; SF-539, Log10 Concentration −5.0 Molar", "value": "−10", "unit": "%"}, {"measurement": "Percent Growth", "setting": "[5]; SF-539, Log10 Concentration −6.0 Molar", "value": "−10", "unit": "%"}, {"measurement": "Percent Growth", "setting": "[5]; SF-539, Log10 Concentration −7.0 Molar", "value": 56, "unit": "%"}, {"measurement": "Percent Growth", "setting": "[5]; SF-539, Log10 Concentration −8.0 Molar", "value": 91, "unit": "%"}, {"measurement": "GI50", "setting": "[6]; Homo sapiens, M14", "value": 75.7, "unit": "nM"}, {"measurement": "CC50", "setting": "[6]; Homo sapiens, M14, read-out: LC50", "value": "> 100000", "unit": "nM"}, {"measurement": "TGI", "setting": "[6]; M14", "value": "6.69E−7", "unit": "Molar"}, {"measurement": "Percent Growth", "setting": "[6]; M14, Log10 Concentration −4.0 Molar", "value": "−29", "unit": "%"}, {"measurement": "Percent Growth", "setting": "[6]; M14, Log10 Concentration −5.0 Molar", "value": "−45", "unit": "%"}, {"measurement": "Percent Growth", "setting": "[6]; M14, Log10 Concentration −6.0 Molar", "value": "−9", "unit": "%"}, {"measurement": "Percent Growth", "setting": "[6]; M14, Log10 Concentration −7.0 Molar", "value": 45, "unit": "%"}, {"measurement": "Percent Growth", "setting": "[6]; M14, Log10 Concentration −8.0 Molar", "value": 90, "unit": "%"}, {"measurement": "GI50", "setting": "[7]; Homo sapiens, SK-MEL-5", "value": 253, "unit": "nM"}, {"measurement": "CC50", "setting": "[7]; Homo sapiens, SK-MEL-5, read-out: LC50", "value": 34100, "unit": "nM"}, {"measurement": "TGI", "setting": "[7]; SK-MEL-5", "value": "1.65E−6", "unit": "Molar"}, {"measurement": "Percent Growth", "setting": "[7]; SK-MEL-5, Log10 Concentration −4.0 Molar", "value": "−57", "unit": "%"}, {"measurement": "Percent Growth", "setting": "[7]; SK-MEL-5, Log10 Concentration −5.0 Molar", "value": "−42", "unit": "%"}, {"measurement": "Percent Growth", "setting": "[7]; SK-MEL-5, Log10 Concentration −6.0 Molar", "value": 12, "unit": "%"}, {"measurement": "Percent Growth", "setting": "[7]; SK-MEL-5, Log10 Concentration −7.0 Molar", "value": 76, "unit": "%"}, {"measurement": "Percent Growth", "setting": "[7]; SK-MEL-5, Log10 Concentration −8.0 Molar", "value": 90, "unit": "%"}, {"measurement": "GI50", "setting": "[8]; Homo sapiens, UACC-257", "value": 144, "unit": "nM"}, {"measurement": "CC50", "setting": "[8]; Homo sapiens, UACC-257, read-out: LC50", "value": "> 100000", "unit": "nM"}, {"measurement": "TGI", "setting": "[8]; UACC-257", "value": ">1.00E−4", "unit": "Molar"}, {"measurement": "Percent Growth", "setting": "[8]; UACC-257, Log10 Concentration −4.0 Molar", "value": 13, "unit": "%"}, {"measurement": "Percent Growth", "setting": "[8]; UACC-257, Log10 Concentration −5.0 Molar", "value": 29, "unit": "%"}]}]}
